Source: ChEMBL document CHEMBL5726293, “Substituted pyrimidine compounds” (2019)

Target: 3',5'-cyclic-AMP phosphodiesterase 4B (Homo sapiens, UniProt Q07343)
Assay: cAMP HTRF Assay to Determine the Activity of hPDE4B1: The inhibiting effect of the compounds on the enzyme activity of human PDE4B1 was measured by the quantification of 5′-adenosine monophosphate (5′-AMP), which is formed from 3′,5′-cyclic adenosine monophosphate (cAMP). Human recombinant enzyme, expressed in Sf9 cells, and the HTRF (homogeneous time-resolved fluorescence) detection method were used in the assay.The test compound or water (control) was mixed with the human recombinant PDE4B1 enzyme (4.8 U) in a buffer consisting of 44.4 mM tris-HCl, 5.28 mM MgCl2, 2.64 mM DTT and 0.044% Tween 20 (pH 7.8). After adding the cAMP enzyme substrate (final concentration 40 nM), the mixture was incubated for 30 minutes at room temperature. Then a fluorescence acceptor (Dye2 marked with cAMP), a fluorescence donor (anti-cAMP antibody marked with a europium cryptate) and the non-specific phosphodiesterase inhibitor IBMX (3-isobutyl-1-methylxanthine; final concentration 1 mM) were added. After 60 min the fluorescence transfer, which correlates with the amount of remaining cAMP, was measured with a microplate reader (Rubystar, BMG) at λex=337 nm, λem=620 nm and λem=665 nm. The enzyme activity was calculated from the quotient formed from the measured signal at 665 nm and that at 620 nm. […]

Chain of 3',5'-cyclic-AMP phosphodiesterase 4B (Q07343 whole entry): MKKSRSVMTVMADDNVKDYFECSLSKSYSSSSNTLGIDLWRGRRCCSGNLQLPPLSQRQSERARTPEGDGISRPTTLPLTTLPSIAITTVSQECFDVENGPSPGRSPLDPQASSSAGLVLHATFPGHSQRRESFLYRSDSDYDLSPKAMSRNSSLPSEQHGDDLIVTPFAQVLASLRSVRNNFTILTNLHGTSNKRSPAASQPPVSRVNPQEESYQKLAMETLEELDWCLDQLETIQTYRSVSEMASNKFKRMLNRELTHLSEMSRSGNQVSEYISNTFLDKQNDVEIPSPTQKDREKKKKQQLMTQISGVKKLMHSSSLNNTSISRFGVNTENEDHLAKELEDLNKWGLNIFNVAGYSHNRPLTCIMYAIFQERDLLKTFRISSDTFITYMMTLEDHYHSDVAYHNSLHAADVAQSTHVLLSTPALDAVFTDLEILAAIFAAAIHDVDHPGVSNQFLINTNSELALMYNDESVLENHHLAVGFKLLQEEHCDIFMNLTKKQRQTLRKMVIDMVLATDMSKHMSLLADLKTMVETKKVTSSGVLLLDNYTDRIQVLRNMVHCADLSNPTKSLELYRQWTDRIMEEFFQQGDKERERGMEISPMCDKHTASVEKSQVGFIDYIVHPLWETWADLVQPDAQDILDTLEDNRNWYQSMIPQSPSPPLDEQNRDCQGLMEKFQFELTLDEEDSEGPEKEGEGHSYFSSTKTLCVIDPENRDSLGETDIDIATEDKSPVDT

Compound | IC50 [nM]
CCc1csc(-c2cnc(N3CC4(CC4)c4ccc(C(=O)N(C)CCO)cc43)nc2)n1 | < 100
CNCCN(C)C(=O)c1ccc2c(c1)N(c1ncc(-c3ccccc3F)cn1)CC21CC1 | < 100
